Measurements from patent US20050260582A1, “Cell proliferation inhibitors comprising ets transcription factor or gene encoding the same” (priority 2001, published 2005).
Each block holds one molecule with its values, some of them ahead of it.

Tests used:
[1] = test system: A549 cell; experiment: Cell morphology and F-actin staining; type: cell-based, human
Description: In FIG. 4, A549 cell, MEF gene overexpressing […] cell and A549 cell treated with BB94 (10 μM) are shown respectively from the left side.
Moreover, it has been reported that metastasis from epithelium to mesenchyme is induced by lack of E-cadherin or activation of MMPs [Llorens et al., 1998], expression of MMPs and E-cadherin was next examined. The right side in FIG. 5 is a photograph in place of a drawing, showing results of analyzing an MMP-9 protein content of A549 cell and MEF gene overexpressing cell in a serum-free culture supernatant (conditioned media) by western blotting using anti-MMP-9 antibody, and the left side in FIG. 5 is a photograph in place of a drawing, showing results of gelatin-zymography of MMP-9. […] In order to examine the decrease in MMP-9 activity in MEF gene overexpressing cell, A549 cell was treated with BB94 as an MMP inhibitor. […] Generally, such a morphological change thereof indicates reduction of an invasion activity. Accordingly, for examining an invasive function of A549 cell and MEF gene overexpressing cell, matrigel invasion assay was performed. In an upper chamber of FIG. 6, 2.5×10^5 A549 cells (left side), MEF gene overexpressing cells (center) and A549 cells (right side) treated with BB94 were inoculated respectively, and the numbers of cells on the lower side which were passed through a 8-μm filter were counted. […]

[2] = test system: A549 cells; experiment: Matrigel invasion assay; type: cell-based, human; details: cells passed through 8-μm filter after 24 hours; BB94-treated A549 as comparison
From the text: Moreover, it has been reported that metastasis from epithelium to mesenchyme is induced by lack of E-cadherin or activation of MMPs [Llorens et al., 1998], expression of MMPs and E-cadherin was next examined. The right side in FIG. 5 is a photograph in place of a drawing, showing results of analyzing an MMP-9 protein content of A549 cell and MEF gene overexpressing cell in a serum-free culture supernatant (conditioned media) by western blotting using anti-MMP-9 antibody, and the left side in FIG. 5 is a photograph in place of a drawing, showing results of gelatin-zymography of MMP-9. […] In an upper chamber of FIG. 6, 2.5×10^5 A549 cells (left side), MEF gene overexpressing cells (center) and A549 cells (right side) treated with BB94 were inoculated respectively, and the numbers of cells on the lower side which were passed through a 8-μm filter were counted. […]
200 μl of each cell suspension prepared to a concentration of 1.0×10^6 cells/ml was added to an upper layer of a matrigel invasion chamber (BD Biocoat Matrigel) having 8-μm pores, and 700 μl of a serum-free culture solution was added thereto. After 24 hours, the cells invaded in the lower layer of the membrane filter were stained with hematoxylin, and the number of the cells was then counted under a microscope.

[3] = test system: MEF expression; experiment: MEF expression by RT-PCR; type: cell-based, human
From the text: Next, since methylcytosine is recognized with methylated DNA bound to protein MeCP2 interacting with HDAC [Ng et al, 1999], the present inventors examined the effect given by the combined use of 5-aza-2′-deoxycytidine (5-azacytidine) as a demethylation agent and tricostatin A as a histone deacylase inhibitor in MEF expression of A549 cell. The results are shown in photographs in place of drawings in FIG. 3. […] GAPDH is shown as a control. In FIG. 3, HEK293 cell, A549 cell and Caco-2 cell are shown from the left side in an upper panel, and A549 cell and Caco-2 cell from the left side in a lower panel. In FIG. 3, DMSO indicates dimethyl sulfoxide, 5-AC indicates 5-azacytidine and TSA indicates tricostatin A respectively. […] The low MEF expression in Hela cell is considered to be attributed to any other unknown mechanism. This is also backed up by the report that Hela cell lacking in known methylation-dependent inhibitor MeCP2 becomes a silence methylation gene using another route including MBD2 [Ng et al., 1999].
Isogene (Nippon Gene) was used in extraction of all RNAs from culture cells. For comparison of various gene expressions of culture cells, RT-PCR was conducted. RNA PCR kit (AMV) ver. 2.1 (TaKaRa) was used for RT-PCR. The methods by which the gene expression identified in the invention are outlined below.
A reverse transcription reaction (at 42° C. for 60 minutes, at 99° C. for 5 minutes, at 5° C. for 5 minutes) was performed using 1 μg of all RNAs extracted from A549 and other cells as templates and oligo dT primers. Thereafter, PCR (at 94° C. for 2 minutes—1 cycle; at 94° C. for 30 seconds, at 58° C. for 30 seconds, at 72° C. for 30 seconds—40 cycles) was performed using an upstream primer (5′-[…]-3,) and a downstream primer (5,-[…]-3′).

[4] = test system: MMP-9 promoter; experiment: Luciferase assay using MMP-9 promoter; type: cell-based, human; details: 5-azacytidine (1 μM) and trichosamine A (1 μM)
Description: (§1) Accordingly, the present inventors further examined the function of MEF on transcription of MMP-9 and IL-8. For examining whether MEF directly suppresses transcription of MMP-9 and IL-8, the present inventors performed luciferase assay using MMP-9 and IL-8 promoters. […] In each case, the ordinate represents a relative luciferase activity, and the abscissa represents Basal, A549 cell, a case of adding 1.0 μM MEF, a case of adding 3.0 μM MEF, a case of adding 5.0 μM MEF and a case of adding MEF gene overexpressing cell (clone 71) from the left respectively. In A549 cell, a high luciferase activity of MMP-9 and IL-8 promoters was observed (FIG. 20). […] In each graph, the ordinate represents a relative luciferase activity, and the abscissa represents Basal, A549 cell, a case of adding Est-2 and a case of adding anti-Est-2 from the left respectively.
(§2) The finding of MMP-9 activation with ETS-2 is also backed up by the study on target deletion of Ets-2 using mice [Yamamoto, 1998]. Since MEF is, unlike PU-1, free from a repressor region [Kihara-Negishi, 2001] and interacts with HDAC or Sin3A having a deacetylase activity, the present inventors next assumed that MEF is a competitor with ETS-2 in ets binding sites of these promoters. […]

[5] = test system: IL-8 promoter; experiment: Luciferase assay using IL-8 promoter; type: cell-based, human; details: 5-azacytidine (1 μM) and trichosamine A (1 μM)
Description: as §1, §2

[6] = test system: human umbilical vein endothelial cells (HUVECs); experiment: Migration of HUVECs toward serum-free culture supernatant; type: cell-based; details: 8-μm filter, 24 hours; A549 supernatant accelerated migration; bFGF positive control
From the text: Successively, it was further examined whether MEF gene overexpression of A549 cells influences metastasis of vessel endothelial cells. […] Human umbilical vein endothelial cells (HUVECs) were inoculated in an upper chamber, and cells migrating in a medium of a lower chamber were observed through a 8-μm filter.
The results are shown in FIG. 17 by photographs in place of drawings. […] In FIG. 18, the ordinate represents a (%) migration activity relative to a non-treated case, and the abscissa represents a non-treated case, a case of bFGF, a case of A549 cell and a case of MEF gene overexpressing cell (clone 71) from the left side respectively.
[…] of a cell suspension containing HUVECs at a concentration of 2.5×10^5 cells/ml was added to an upper layer of a matrigel invasion chamber (BD Biocoat Matrigel) having 8-μm pores. Subsequently, 700 μl of a serum-free culture supernatant produced according to 1. of Example 10 was added to a lower layer. After 24 hours, HUVECs invaded into the lower layer of the membrane filter were stained with hematoxylin, and the number of cells was then counted under a microscope.

Molecule: CNC(=O)[C@H](Cc1ccccc1)NC(=O)[C@H](CC(C)C)[C@H](CSc1cccs1)C(=O)NO [BB94]
F-actin localization ([1]; MEF gene overexpression or BB94 10 μM): localization of F-actin in the interface between cells
morphological change ([1]; MEF gene overexpression, BB94 10 μM or 5-azacytidine 10 μm): induced typical morphological change
invasion activity [2]: inhibitory effect

MMP-9 promoter activity [4]: inhibited
IL-8 promoter activity [5]: inhibited
Molecule: CC(/C=C/C(=O)NO)=C\[C@@H](C)C(=O)c1ccc(N(C)C)cc1 [tricostatin A]
MEF expression ([3]; A549 cell, combined use of 5-azacytidine (1 μM) and tricostatin A (300 μM)): clearly increased the MEF expression
MEF expression ([3]; A549 cell, single use of the reagent): increased the MEF expression only slightly
MEF expression ([3]; Caco-2 cell, 5-azacytidine and tricostatin A): same effect was observed
MEF expression ([3]; HEK293 cell, 5-azacytidine and tricostatin A): not in HEK293 and Hela cells
MEF expression ([3]; Hela cell, 5-azacytidine and tricostatin A): not in HEK293 and Hela cells

Molecule: bFGF: basic FGF, positive control for HUVEC migration
migration of HUVECs [6]: increased migration of HUVECs
